Assay [1] concerns the target T1, BCL-XL (Homo sapiens, UniProt Q07817).
T1 construct: endogenous in cells; host or cells: MOLT-4
Put plainly: BCL-XL degradation assay, western blot in MOLT-4 cells, 16 h. The assay is classed as cell-based. The conditions noted are these: western blot, MOLT-4 cells, 16 h; for Dmax: read-out: Bcl-xL WB in MOLT-4 degradation 16 h: Average Dmax %; for DC50: read-out: Bcl-xL WB in MOLT-4 degradation 16 h: Mean external-Abs DC50. An outline of the steps:
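Infrared-imaged western blots quantified BCL-xL (normalised against beta-actin/GAPDH) after 16 hr, 37° C exposure of MOLT-4 cells to 0.02-10 μM compound; results given as DC50 and Dmax % bins.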

In assay [2] the target is T1, BCL-XL. Put plainly: Bcl-xL ELISA degradation in MOLT-4 cells, 6 h. The following applies: for DC50: read-out: Bcl-xL ELISA in MOLT-4 degradation 6 h: Mean external-Abs DC50. Type of assay: cell-based. Here is the method:
The letter codes for BCL-XL DC50 include: A (<0.01 μM); B (0.01-0.1 μM); C (>[…]); D (>0.5-1.0 μM); and E (>1.0 μM). The letter codes for Dmax % include A (>75%); B (50 to 75%); C (<50%).

As usually defined, the Dmax is the greatest extent of degradation seen. What is called DC50 is the midpoint of the concentration-degradation curve.

T1 sequence (Q07817 whole entry): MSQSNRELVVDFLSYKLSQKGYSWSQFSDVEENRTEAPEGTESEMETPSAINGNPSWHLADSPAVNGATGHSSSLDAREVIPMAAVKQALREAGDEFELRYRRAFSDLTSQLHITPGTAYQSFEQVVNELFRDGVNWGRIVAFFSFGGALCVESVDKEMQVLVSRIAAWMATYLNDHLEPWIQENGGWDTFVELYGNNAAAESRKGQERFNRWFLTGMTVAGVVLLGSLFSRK

In the case of `Cc1ncsc1-c1ccc([C@H](C)NC(=O)[C@@H]2C[C@@H](O)CN2C(=O)[C@@H](NC(=O)N2CCC(CN3CCN(CC#Cc4ccc(OCCCc5sc(N6CCc7cccc(C(=O)Nc8nc9ccccc9s8)c7C6)nc5C(=O)O)c(F)c4)CC3)CC2)C(C)(C)C)cc1` [I-72], the Dmax on BCL-XL [1] is less than 50%. Also, at BCL-XL [2], the Dmax is less than 50% and the DC50 lay within 10 to 100 nM.
As to `Cc1ncsc1-c1ccc(CNC(=O)[C@@H]2C[C@@H](O)CN2C(=O)[C@@H](NC(=O)C2(F)CC2)C(C)(C)C)c(OCC2CCN(CC[C@H](CSc3ccccc3)Nc3ccc(S(=O)(=O)NC(=O)c4ccc(N5CCN(CC6=C(c7ccc(Cl)cc7)CCC(C)(C)C6)CC5)cc4)cc3S(=O)(=O)C(F)(F)F)CC2)c1` [I-249], at BCL-XL [1], the Dmax is greater than 75% and the DC50 was less than 10 nM. Also, on BCL-XL [2], the Dmax was less than 50% and the DC50 was greater than 1000 nM.
`Cc1ncsc1-c1ccc([C@H](C)NC(=O)[C@@H]2C[C@@H](O)CN2C(=O)[C@@H](c2cc(N3CC4(CN(c5ccc(S(=O)(=O)NC(=O)c6nc(N7CCc8cccc(C(=O)Nc9nc%10ccccc%10s9)c8C7)ccc6-c6cnn(CC7CCCCC7)c6C)cc5)C4)C3)no2)C(C)C)cc1` [I-226]: on BCL-XL [1], the Dmax is greater than 75% and the DC50 was less than 10 nM. Also, on BCL-XL [2], the maximal degradation (Dmax) was in the range of 50 to 75% and the DC50 was in the range of 10 to 100 nM.
The corresponding values for `Cc1ncsc1-c1ccc([C@H](C)NC(=O)[C@@H]2C[C@@H](O)CN2C(=O)[C@@H](NC(=O)N2CC3(CC(N4CCN(C(=O)c5nc(N6CCc7cccc(C(=O)Nc8nc9ccccc9s8)c7C6)ccc5-c5cnn(CC6CCCCC6)c5C)CC4)C3)C2)C(C)(C)C)cc1` [I-248] are 50 to 75%, 10 to 100 nM, less than 50% and greater than 1000 nM.
For `C#Cc1ccc([C@H](CO)NC(=O)[C@@H]2C[C@@H](O)CN2C(=O)[C@@H](NC(=O)C2CCN(c3ccc(S(=O)(=O)NC(=O)c4nc(N5CCc6cccc(C(=O)Nc7nc8ccccc8s7)c6C5)ccc4-c4cnn(CC5CCCCC5)c4C)cc3)CC2)C(C)(C)C)cc1` [I-242], the Dmax at BCL-XL [1] and at BCL-XL [2] was greater than 75% throughout. The DC50 at BCL-XL [1] is less than 10 nM; on BCL-XL [2] it was 10 to 100 nM.
As to `Cc1ncsc1-c1ccc([C@H](C)NC(=O)[C@@H]2C[C@@H](O)CN2C(=O)[C@@H](c2cc(N3CC(N4CCC(NC(=O)c5nc(N6CCc7cccc(C(=O)Nc8nc9ccccc9s8)c7C6)ccc5-c5cnn(CC6CCCCC6)c5C)CC4)C3)no2)C(C)C)cc1` [I-236], the Dmax at BCL-XL [1] was greater than 75%; at BCL-XL [2], 50 to 75%. For the same molecule, the results for the DC50 at BCL-XL [1] and at BCL-XL [2] were less than 10 nM and 100 to 500 nM, respectively.
Taken in the same sequence, the figures for `Cc1cc(N2CCC(C(=O)N[C@H](C(=O)N3C[C@H](O)C[C@H]3C(=O)N[C@@H](C)c3ccc(-c4scnc4C)cc3)C(C)(C)C)CC2)ccc1S(=O)(=O)NC(=O)c1nc(N2CCc3cccc(C(=O)Nc4nc5ccccc5s4)c3C2)ccc1-c1cnn(CC2CCCCC2)c1C` [I-275] were greater than 75%, greater than 75%, less than 10 nM and 10 to 100 nM.
Consider `Cc1ncsc1-c1ccc([C@H](C)NC(=O)[C@@H]2C[C@@H](O)CN2C(=O)C(c2cc(OC3CC4(C3)CN(C(=O)c3nc(N5CCc6cccc(C(=O)Nc7nc8ccccc8s7)c6C5)ccc3-c3cnn(CC5CCCCC5)c3C)C4)no2)C(C)C)cc1` (some centres unmarked) [I-237], for which the Dmax at BCL-XL [1] was greater than 75%; on BCL-XL [2], 50 to 75%. The half-maximal degradation concentration (DC50) was less than 10 nM at BCL-XL [1] and 100 to 500 nM at BCL-XL [2].
`Cc1ncsc1-c1ccc([C@H](C)NC(=O)[C@@H]2C[C@@H](O)CN2C(=O)C(c2cc(OC3CN(c4ccc(S(=O)(=O)NC(=O)c5nc(N6CCc7cccc(C(=O)Nc8nc9ccccc9s8)c7C6)ccc5-c5cnn(CC6CCCCC6)c5C)cc4)C3)no2)C(C)C)cc1` (some centres unmarked) [I-230]: on BCL-XL [1], the Dmax is greater than 75% and the DC50 was less than 10 nM. Also, on BCL-XL [2], the Dmax is greater than 75% and the DC50 is 10 to 100 nM.
For `Cc1cc(N(C)c2ccc(-c3cnn(CC45CC6CC(CC(C6)C4)C5)c3C)c(C(=O)NS(=O)(=O)c3ccc(N4CCC(C(=O)N[C@H](C(=O)N5C[C@H](O)C[C@H]5C(=O)N[C@@H](C)c5ccc(-c6scnc6C)cc5)C(C)(C)C)CC4)cc3)n2)nnc1Nc1nc2ccccc2s1` [I-246], the Dmax on BCL-XL [1] and on BCL-XL [2] was greater than 75% throughout. For the same molecule, the 50% degradation concentration (DC50) on BCL-XL [1] was less than 10 nM; at BCL-XL [2] it was 10 to 100 nM.
With `Cc1ncsc1-c1ccc([C@H](C)NC(=O)[C@@H]2C[C@@H](O)CN2C(=O)[C@@H](NC(=O)C2CCN(c3ccc(S(=O)(=O)NC(=O)c4nc(N5CCc6cccc(C(=O)Nc7nc8cccnc8s7)c6C5)ccc4-c4cnn(CC5CCCCC5)c4C)cc3)CC2)C(C)(C)C)cc1` [I-241], at BCL-XL [1], the Dmax was greater than 75% and the DC50 was less than 10 nM. Besides, on BCL-XL [2], the greatest degradation seen (Dmax) is greater than 75% and the 50% degradation concentration (DC50) lay in the range of 10 to 100 nM.
On to `Cc1ncsc1-c1ccc([C@H](C)NC(=O)[C@@H]2C[C@@H](O)CN2C(=O)C(c2cc(OC3CCN(CCNC(=O)c4nc(N5CCc6cccc(C(=O)Nc7nc8ccccc8s7)c6C5)ccc4-c4cnn(CC5CCCCC5)c4C)CC3)no2)C(C)C)cc1` (some centres unmarked) [I-234], for which, at BCL-XL [1], the Dmax was 50 to 75% and the DC50 lay in the range of 10 to 100 nM. At BCL-XL [2], the Dmax was less than 50% and the DC50 was greater than 1000 nM.
For the molecule `Cc1ncsc1-c1ccc(CNC(=O)[C@@H]2C[C@@H](O)CN2C(=O)[C@@H](NC(=O)CCCC(=O)N(C)CCN(C)c2cc3c(c(C(=O)Nc4nc5ccccc5s4)c2)CN(c2ccc(-c4cnn(CC5CCCCC5)c4C)c(C(=O)O)n2)CC3)C(C)(C)C)cc1` [I-109], at BCL-XL [1], the Dmax was less than 50% and the DC50 was greater than 1000 nM.
As for `Cc1ncsc1-c1ccc([C@H](C)NC(=O)[C@@H]2C[C@@H](O)CN2C(=O)[C@@H](NC(=O)[C@H]2CC[C@H](CC(=O)N3CCN(CC[C@H](CSc4ccccc4)Nc4ccc(S(=O)(=O)NC(=O)c5ccc(N6CCN(CC7=C(c8ccc(Cl)cc8)CCC(C)(C)C7)CC6)cc5)cc4S(=O)(=O)C(F)(F)F)CC3)CC2)C(C)(C)C)cc1` [I-391], at BCL-XL [1], the Dmax is greater than 75% and the DC50 is 10 to 100 nM.
With `Cc1cc(N(CCN(C)C(=O)CCCCCCCCOc2cc(-c3scnc3C)ccc2CNC(=O)[C@@H]2C[C@@H](O)CN2C(=O)[C@@H](NC(=O)C2(F)CC2)C(C)(C)C)c2ccc(-c3cnn(CC4CCCCC4)c3C)c(C(=O)O)n2)nnc1Nc1nc2ccccc2s1` [I-104], on BCL-XL [1], the Dmax is less than 50% and the half-maximal degradation concentration (DC50) was greater than 1000 nM.
Taken in the same sequence, the figures for `Cc1ncsc1-c1ccc([C@H](C)NC(=O)[C@@H]2C[C@@H](O)CN2C(=O)[C@@H](NC(=O)CCCC(=O)N(C)CC#Cc2ccc(OCCCc3sc(N4CCc5cccc(C(=O)Nc6nc7ccccc7s6)c5C4)nc3C(=O)O)c(F)c2)C(C)(C)C)cc1` [I-2] were greater than 75% and 100 to 500 nM.
Taken in the same sequence, the figures for `Cc1ncsc1-c1ccc(CNC(=O)[C@@H]2C[C@@H](O)CN2C(=O)C(c2cc(OCCCCCCCCC(=O)N(C)CC#Cc3ccc(OCCCc4sc(N5CCc6cccc(C(=O)Nc7nc8ccccc8s7)c6C5)nc4C(=O)O)c(F)c3)no2)C(C)C)cc1` (some centres unmarked) [I-88] were greater than 75% and 10 to 100 nM.
The corresponding values for `Cc1ncsc1-c1ccc([C@H](C)NC(=O)[C@@H]2C[C@@H](O)CN2C(=O)[C@@H](NC(=O)CCCCCC(=O)N(C)CC#Cc2ccc(OCCCc3sc(N4CCc5cccc(C(=O)Nc6nc7ccccc7s6)c5C4)nc3C(=O)O)c(F)c2)C(C)(C)C)cc1` [I-3] are greater than 75% and 10 to 100 nM.
As for `Cc1ncsc1-c1ccc(CNC(=O)[C@@H]2C[C@@H](O)CN2C(=O)[C@@H](NC(=O)C2(F)CC2)C(C)(C)C)c(OCCCC(=O)N(C)CC#Cc2ccc(OCCCc3sc(N4CCc5cccc(C(=O)Nc6nc7ccccc7s6)c5C4)nc3C(=O)O)c(F)c2)c1` [I-6], on BCL-XL [1], the Dmax is greater than 75% and the DC50 was 100 to 500 nM.
Taken in the same sequence, the figures for `Cc1ncsc1-c1ccc(CNC(=O)[C@@H]2C[C@@H](O)CN2C(=O)C(c2cc(OCCCC(=O)N3CCN(CC[C@H](CSc4ccccc4)Nc4ccc(S(=O)(=O)NC(=O)c5ccc(N6CCN(CC7=C(c8ccc(Cl)cc8)CCC(C)(C)C7)CC6)cc5)cc4S(=O)(=O)C(F)(F)F)CC3)no2)C(C)C)cc1` (some centres unmarked) [I-38] were 50 to 75% and 100 to 500 nM.
The corresponding values for `Cc1ncsc1-c1ccc([C@H](C)NC(=O)[C@@H]2C[C@@H](O)CN2C(=O)[C@@H](NC(=O)CCCC(=O)N(C)CCN(C)c2cc3c(c(C(=O)Nc4nc5ccccc5s4)c2)CN(c2ccc(-c4cnn(CC5CCCCC5)c4C)c(C(=O)O)n2)CC3)C(C)(C)C)cc1` [I-110] are less than 50% and greater than 1000 nM.
The corresponding values for `Cc1ncsc1-c1ccc([C@H](C)NC(=O)[C@@H]2C[C@@H](O)CN2C(=O)[C@@H](NC(=O)CCc2cccc(F)c2OCCCc2sc(N3CCc4cccc(C(=O)Nc5nc6ccccc6s5)c4C3)nc2C(=O)O)C(C)(C)C)cc1` [I-30] are less than 50% and greater than 1000 nM.
As to `Cc1ncsc1-c1ccc([C@H](C)NC(=O)[C@@H]2C[C@@H](O)CN2C(=O)[C@@H](NC(=O)CCc2ccc(S(=O)(=O)NC(=O)c3ccc(N4CCN(CC5=C(c6ccc(Cl)cc6)CCC(C)(C)C5)CC4)cc3)cc2)C(C)(C)C)cc1` [I-124], on BCL-XL [1], the Dmax is less than 50% and the DC50 was greater than 1000 nM.
`Cc1cc(N(CCCC(=O)N[C@H](C(=O)N2C[C@H](O)C[C@H]2C(=O)N[C@@H](C)c2ccc(-c3scnc3C)cc2)C(C)(C)C)c2ccc(-c3cnn(CC4CCCCC4)c3C)c(C(=O)O)n2)nnc1Nc1nc2ccccc2s1` [I-113]: on BCL-XL [1], the Dmax is less than 50% and the DC50 was greater than 1000 nM.

(Values after patent publication US20250197387A1, “BCL-XL DEGRADERS AND USES THEREOF” (Kymera Therapeutics, Inc., priority 2021, published 2025).)
